The values below come from ChEMBL document CHEMBL5678810.

In test [1] the target is T1, Mitogen-activated protein kinase kinase kinase 19 (Homo sapiens) (UniProt Q56UN5).
T1 sequence (whole entry): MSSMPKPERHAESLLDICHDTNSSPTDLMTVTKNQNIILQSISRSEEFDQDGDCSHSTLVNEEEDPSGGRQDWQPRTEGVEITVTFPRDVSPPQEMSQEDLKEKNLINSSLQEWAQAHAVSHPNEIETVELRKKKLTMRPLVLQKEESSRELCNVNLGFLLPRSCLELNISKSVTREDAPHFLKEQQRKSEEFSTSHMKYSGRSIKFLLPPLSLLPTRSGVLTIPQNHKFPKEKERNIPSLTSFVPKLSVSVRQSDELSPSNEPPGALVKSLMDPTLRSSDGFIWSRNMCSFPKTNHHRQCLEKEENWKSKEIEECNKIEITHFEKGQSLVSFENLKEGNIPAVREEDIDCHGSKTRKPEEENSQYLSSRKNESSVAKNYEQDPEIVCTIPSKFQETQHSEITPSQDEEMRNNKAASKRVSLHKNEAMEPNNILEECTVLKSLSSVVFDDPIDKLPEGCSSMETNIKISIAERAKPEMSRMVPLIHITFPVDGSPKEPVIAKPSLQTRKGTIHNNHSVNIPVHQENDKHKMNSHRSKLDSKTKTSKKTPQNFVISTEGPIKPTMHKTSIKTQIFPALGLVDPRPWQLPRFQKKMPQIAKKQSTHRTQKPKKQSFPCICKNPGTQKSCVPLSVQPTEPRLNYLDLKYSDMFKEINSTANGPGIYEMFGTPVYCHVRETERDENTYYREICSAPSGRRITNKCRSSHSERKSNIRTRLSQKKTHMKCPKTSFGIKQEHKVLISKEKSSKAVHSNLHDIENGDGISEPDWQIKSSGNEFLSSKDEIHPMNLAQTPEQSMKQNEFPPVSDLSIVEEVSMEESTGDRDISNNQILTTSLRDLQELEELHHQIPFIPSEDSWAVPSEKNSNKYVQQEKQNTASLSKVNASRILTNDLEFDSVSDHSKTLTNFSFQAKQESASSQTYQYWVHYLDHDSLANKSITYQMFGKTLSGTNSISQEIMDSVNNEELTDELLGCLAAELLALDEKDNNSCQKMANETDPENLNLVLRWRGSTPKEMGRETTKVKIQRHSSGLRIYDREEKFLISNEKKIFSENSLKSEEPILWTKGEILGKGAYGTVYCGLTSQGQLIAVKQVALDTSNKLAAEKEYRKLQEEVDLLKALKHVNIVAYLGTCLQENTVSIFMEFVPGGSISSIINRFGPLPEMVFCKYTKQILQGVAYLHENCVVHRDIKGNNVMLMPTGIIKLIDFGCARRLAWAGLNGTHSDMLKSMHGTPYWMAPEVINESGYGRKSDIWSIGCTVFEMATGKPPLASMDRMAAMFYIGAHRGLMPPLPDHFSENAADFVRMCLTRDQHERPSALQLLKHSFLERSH
As to the kind of experiment: Inhibition of T7 bacteriophage fused human YSK4 at 10 uM by KINOMEscan analysis relative to control.

The target in test [2] is SNF-related serine/threonine-protein kinase (Homo sapiens) (UniProt Q9NRH2). As to the kind of experiment: Inhibition of T7 bacteriophage fused human SNRK at 10 uM by KINOMEscan analysis relative to control.
Chain of SNF-related serine/threonine-protein kinase (Homo sapiens) (Q9NRH2 whole entry, the tested form may be a part): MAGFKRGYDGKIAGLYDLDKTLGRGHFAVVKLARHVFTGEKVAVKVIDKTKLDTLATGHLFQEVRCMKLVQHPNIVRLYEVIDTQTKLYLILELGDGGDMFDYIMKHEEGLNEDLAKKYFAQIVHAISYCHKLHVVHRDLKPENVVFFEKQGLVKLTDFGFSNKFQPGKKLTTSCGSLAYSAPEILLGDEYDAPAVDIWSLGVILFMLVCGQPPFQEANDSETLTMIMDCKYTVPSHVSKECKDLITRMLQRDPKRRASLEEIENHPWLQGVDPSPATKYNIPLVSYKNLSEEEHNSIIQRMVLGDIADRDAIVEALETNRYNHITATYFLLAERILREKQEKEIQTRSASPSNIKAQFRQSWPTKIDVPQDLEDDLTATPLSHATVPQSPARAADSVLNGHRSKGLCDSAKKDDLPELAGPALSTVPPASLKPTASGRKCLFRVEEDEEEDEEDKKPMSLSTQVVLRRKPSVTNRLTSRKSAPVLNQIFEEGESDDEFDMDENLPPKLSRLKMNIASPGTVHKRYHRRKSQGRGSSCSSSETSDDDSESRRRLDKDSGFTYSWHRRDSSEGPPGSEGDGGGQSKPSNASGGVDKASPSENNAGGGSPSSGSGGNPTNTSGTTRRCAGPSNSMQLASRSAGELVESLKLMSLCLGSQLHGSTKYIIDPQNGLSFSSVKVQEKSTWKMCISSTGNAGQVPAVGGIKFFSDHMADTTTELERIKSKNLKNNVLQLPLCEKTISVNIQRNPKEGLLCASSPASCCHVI
Test [3] is described as follows: Inhibition of T7 bacteriophage fused Plasmodium falciparum CDPK1 at 10 uM by KINOMEscan analysis relative to control. To be noted: condition cancer.
Test [4] has as its target Serine/threonine-protein kinase Sgk3 (Homo sapiens) (UniProt Q96BR1). The test is described as follows: Inhibition of T7 bacteriophage fused human SGK3 at 10 uM by KINOMEscan analysis relative to control.
Test [5] deals with TRAF2 and NCK-interacting protein kinase (Homo sapiens) (UniProt Q9UKE5). As to the kind of experiment: Inhibition of T7 bacteriophage fused human TNIK at 10 uM by KINOMEscan analysis relative to control.
For test [6], the target named is Ribosomal protein S6 kinase alpha-6 (Homo sapiens) (UniProt Q9UK32). As to the kind of experiment: Inhibition of T7 bacteriophage fused human N-terminal RSK4 Kinase domain-1 at 10 uM by KINOMEscan analysis relative to control.
Chain of Ribosomal protein S6 kinase alpha-6 (Homo sapiens) (Q9UK32 whole entry, the tested form may be a part): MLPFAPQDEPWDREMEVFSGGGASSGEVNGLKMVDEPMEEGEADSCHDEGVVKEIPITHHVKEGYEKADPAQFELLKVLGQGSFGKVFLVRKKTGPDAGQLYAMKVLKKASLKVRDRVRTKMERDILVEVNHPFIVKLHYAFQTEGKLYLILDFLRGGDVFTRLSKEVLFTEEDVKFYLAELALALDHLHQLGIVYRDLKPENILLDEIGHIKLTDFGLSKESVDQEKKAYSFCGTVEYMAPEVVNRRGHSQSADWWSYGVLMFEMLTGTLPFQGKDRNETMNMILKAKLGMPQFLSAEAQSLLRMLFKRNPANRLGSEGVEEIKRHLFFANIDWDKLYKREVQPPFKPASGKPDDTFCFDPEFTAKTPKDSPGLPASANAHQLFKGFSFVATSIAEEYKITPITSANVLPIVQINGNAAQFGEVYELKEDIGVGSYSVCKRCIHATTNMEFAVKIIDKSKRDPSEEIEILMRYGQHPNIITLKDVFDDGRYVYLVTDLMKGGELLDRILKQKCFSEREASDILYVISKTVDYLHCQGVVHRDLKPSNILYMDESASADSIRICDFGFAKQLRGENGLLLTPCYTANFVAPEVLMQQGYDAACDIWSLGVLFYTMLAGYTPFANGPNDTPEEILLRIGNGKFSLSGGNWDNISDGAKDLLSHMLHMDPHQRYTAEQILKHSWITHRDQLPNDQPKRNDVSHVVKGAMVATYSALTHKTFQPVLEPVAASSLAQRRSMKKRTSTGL
Test [7] has as its target Peripheral plasma membrane protein CASK (Homo sapiens) (UniProt O14936). The test is described as follows: Inhibition of T7 bacteriophage fused human CASK at 10 uM by KINOMEscan analysis relative to control.
Test [8] has as its target Serine/threonine-protein kinase 32B (Homo sapiens) (UniProt Q9NY57). The test is described as follows: Inhibition of T7 bacteriophage fused human YANK2 at 10 uM by KINOMEscan analysis relative to control.
Test [9] addresses T2, Serine/threonine-protein kinase ULK3 (Homo sapiens) (UniProt Q6PHR2).
T2 sequence (whole entry): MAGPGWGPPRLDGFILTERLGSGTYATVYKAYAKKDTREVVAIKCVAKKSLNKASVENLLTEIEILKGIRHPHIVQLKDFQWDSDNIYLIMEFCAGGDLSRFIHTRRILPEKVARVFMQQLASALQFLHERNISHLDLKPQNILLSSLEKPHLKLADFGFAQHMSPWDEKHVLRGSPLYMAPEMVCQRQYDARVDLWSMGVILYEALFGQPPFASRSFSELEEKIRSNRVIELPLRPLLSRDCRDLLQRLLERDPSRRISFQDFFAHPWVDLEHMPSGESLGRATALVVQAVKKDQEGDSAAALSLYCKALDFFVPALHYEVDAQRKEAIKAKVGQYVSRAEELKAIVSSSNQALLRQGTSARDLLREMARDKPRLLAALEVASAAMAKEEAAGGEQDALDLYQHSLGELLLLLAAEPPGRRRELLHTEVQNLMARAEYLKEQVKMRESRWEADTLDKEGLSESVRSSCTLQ
The test is described as follows: Inhibition of T7 bacteriophage fused human ULK3 at 10 uM by KINOMEscan analysis relative to control.

The target of test [10] is SRSF protein kinase 1 (Homo sapiens) (UniProt Q96SB4). The test is described as follows: Inhibition of T7 bacteriophage fused human SRPK1 at 10 uM by KINOMEscan analysis relative to control.
Test [11] addresses Tyrosine-protein kinase Tec (Homo sapiens) (UniProt P42680). As to the kind of experiment: Inhibition of T7 bacteriophage fused human TEC at 10 uM by KINOMEscan analysis relative to control.
The target of test [12] is Non-receptor tyrosine-protein kinase TYK2 (Homo sapiens) (UniProt P29597). The test is described as follows: Inhibition of T7 bacteriophage fused human TYK2 JH2 pseudokinase domain at 10 uM by KINOMEscan analysis relative to control.
Chain of Non-receptor tyrosine-protein kinase TYK2 (Homo sapiens) (P29597 whole entry, the tested form may be a part): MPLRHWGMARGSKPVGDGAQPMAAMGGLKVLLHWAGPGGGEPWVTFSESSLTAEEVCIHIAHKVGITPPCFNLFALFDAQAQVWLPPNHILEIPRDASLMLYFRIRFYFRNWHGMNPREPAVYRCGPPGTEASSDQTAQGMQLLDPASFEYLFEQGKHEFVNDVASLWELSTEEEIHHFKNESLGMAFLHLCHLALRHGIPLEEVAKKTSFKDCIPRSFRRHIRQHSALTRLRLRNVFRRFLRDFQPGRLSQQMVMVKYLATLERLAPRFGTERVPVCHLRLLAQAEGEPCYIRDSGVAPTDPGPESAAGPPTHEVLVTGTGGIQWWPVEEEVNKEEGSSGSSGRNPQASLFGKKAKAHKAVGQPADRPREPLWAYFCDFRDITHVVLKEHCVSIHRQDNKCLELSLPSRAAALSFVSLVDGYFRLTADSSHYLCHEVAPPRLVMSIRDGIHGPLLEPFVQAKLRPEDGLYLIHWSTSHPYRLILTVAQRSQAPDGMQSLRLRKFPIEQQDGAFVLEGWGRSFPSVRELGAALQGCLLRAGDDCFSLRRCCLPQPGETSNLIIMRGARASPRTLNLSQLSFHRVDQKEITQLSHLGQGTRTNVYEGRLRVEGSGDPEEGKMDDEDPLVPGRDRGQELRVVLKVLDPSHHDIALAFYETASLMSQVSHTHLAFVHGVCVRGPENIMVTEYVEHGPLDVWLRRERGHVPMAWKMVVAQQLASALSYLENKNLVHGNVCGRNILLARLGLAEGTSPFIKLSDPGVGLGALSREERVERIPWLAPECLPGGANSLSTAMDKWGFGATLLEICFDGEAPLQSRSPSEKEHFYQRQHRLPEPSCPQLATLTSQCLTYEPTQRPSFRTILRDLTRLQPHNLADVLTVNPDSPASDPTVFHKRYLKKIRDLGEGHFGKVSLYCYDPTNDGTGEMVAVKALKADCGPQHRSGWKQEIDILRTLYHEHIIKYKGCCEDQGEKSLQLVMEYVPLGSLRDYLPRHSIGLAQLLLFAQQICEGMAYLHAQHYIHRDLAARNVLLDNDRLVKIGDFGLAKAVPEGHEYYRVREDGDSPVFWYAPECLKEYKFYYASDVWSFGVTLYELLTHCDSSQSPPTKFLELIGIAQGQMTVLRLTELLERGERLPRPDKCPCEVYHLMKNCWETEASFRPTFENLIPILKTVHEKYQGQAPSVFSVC
For test [13], the target named is Cyclin-dependent kinase 2 homolog (Plasmodium falciparum (isolate K1 / Thailand)) (UniProt Q07785). The test is described as follows: Inhibition of T7 bacteriophage fused Plasmodium falciparum PK5 at 10 uM by KINOMEscan analysis relative to control.
The target in test [14] is Serine/threonine-protein kinase SIK2 (Homo sapiens) (UniProt Q9H0K1). As to the kind of experiment: Inhibition of T7 bacteriophage fused human SIK2 at 10 uM by KINOMEscan analysis relative to control.
Test [15] concerns the target Angiopoietin-1 receptor (Homo sapiens) (UniProt Q02763). The test is described as follows: Inhibition of T7 bacteriophage fused human TIE2 at 10 uM by KINOMEscan analysis relative to control.

Chain of Angiopoietin-1 receptor (Homo sapiens) (Q02763 whole entry, the tested form may be a part): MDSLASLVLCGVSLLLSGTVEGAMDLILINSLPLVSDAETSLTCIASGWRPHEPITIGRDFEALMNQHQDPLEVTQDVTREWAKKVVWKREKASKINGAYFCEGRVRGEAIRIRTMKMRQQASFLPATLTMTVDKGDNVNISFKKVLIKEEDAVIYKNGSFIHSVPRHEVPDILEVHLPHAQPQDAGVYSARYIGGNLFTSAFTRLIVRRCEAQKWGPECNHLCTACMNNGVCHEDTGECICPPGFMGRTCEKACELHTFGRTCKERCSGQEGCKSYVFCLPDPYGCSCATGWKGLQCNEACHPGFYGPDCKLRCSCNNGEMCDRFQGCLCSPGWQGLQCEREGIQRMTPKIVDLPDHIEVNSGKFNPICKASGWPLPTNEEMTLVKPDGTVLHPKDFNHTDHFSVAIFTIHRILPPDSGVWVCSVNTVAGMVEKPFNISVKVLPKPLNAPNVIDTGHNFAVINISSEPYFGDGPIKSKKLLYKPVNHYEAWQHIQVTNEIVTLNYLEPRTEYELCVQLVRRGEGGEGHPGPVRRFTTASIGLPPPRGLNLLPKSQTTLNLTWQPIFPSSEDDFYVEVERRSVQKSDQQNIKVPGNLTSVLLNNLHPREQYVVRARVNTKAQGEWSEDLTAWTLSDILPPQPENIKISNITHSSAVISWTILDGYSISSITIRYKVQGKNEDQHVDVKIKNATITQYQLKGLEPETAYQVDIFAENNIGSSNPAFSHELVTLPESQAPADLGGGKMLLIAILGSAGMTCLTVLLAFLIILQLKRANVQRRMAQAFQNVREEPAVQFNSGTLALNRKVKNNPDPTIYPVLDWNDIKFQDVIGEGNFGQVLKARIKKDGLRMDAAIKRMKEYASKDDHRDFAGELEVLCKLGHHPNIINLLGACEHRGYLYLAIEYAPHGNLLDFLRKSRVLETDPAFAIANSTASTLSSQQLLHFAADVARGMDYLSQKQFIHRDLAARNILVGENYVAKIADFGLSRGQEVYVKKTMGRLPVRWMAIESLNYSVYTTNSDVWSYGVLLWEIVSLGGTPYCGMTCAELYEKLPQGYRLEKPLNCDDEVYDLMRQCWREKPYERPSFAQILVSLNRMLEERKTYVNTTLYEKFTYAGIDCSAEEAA
Chain of Serine/threonine-protein kinase 32B (Homo sapiens) (Q9NY57 whole entry, the tested form may be a part): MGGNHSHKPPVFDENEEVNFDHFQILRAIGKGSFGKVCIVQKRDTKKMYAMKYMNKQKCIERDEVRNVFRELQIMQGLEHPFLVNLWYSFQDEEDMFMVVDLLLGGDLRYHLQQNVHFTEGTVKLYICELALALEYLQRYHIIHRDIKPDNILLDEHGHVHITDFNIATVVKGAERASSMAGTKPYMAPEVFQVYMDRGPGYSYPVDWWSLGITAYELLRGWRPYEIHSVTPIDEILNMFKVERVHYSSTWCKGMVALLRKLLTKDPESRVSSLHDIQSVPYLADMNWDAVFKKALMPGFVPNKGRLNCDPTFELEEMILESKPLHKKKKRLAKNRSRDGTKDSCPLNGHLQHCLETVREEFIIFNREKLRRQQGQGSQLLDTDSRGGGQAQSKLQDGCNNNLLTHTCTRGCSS
Chain of Tyrosine-protein kinase Tec (Homo sapiens) (P42680 whole entry, looked up, the tested form may be a part): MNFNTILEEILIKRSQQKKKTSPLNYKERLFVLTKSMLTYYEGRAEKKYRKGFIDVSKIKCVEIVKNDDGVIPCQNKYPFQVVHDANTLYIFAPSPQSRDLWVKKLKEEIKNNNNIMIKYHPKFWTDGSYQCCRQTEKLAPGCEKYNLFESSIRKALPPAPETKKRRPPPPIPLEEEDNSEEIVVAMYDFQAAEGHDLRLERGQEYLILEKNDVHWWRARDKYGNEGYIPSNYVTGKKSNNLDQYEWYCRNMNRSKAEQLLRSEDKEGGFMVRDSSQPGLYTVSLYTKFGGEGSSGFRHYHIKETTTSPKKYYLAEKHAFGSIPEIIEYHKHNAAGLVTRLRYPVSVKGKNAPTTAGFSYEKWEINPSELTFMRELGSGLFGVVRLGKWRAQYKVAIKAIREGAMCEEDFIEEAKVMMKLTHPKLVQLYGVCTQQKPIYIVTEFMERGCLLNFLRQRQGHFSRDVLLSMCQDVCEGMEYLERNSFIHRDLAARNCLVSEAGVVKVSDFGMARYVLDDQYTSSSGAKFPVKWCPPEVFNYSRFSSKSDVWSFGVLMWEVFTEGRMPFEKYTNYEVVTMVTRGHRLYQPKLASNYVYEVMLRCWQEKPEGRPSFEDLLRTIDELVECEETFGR

The inhibition is the share of the control response that was lost under treatment. Low readings indicate a response near the control, high ones a response far below the control. With `COc1cc(N2CCC(N3CCN(C)CC3)CC2)ccc1Nc1ncc2c(n1)N(C)c1ccccc1C(=O)N2C`, the inhibition in test [1] stood at 99%; in [2], 94%; in test [4], 95%; in test [5], 100%; in test [6], 92%; in test [7], 85%. Besides, the inhibition worked out at 100% in [8]; 100% in test [9]; 94% in [10]; 100% in test [11]; 100% in [12]; 100% in test [13]. Further, the inhibition in test [14] amounted to 98%; in test [15] it was 100%. Moreover, in [3], 10 µM produced 100% inhibition.
In the case of `COc1cc(C(=O)N2CCC(N3CCN(C)CC3)CC2)ccc1Nc1ncc2c(n1)N(C1CCCC1)c1ccccc1C(=O)N2C`, the inhibition in [1], in [4], in test [5], in [6], in test [7] and in [8] was 100% throughout. Further, the inhibition in test [9], in test [12] and in test [15] was 100% in each case.
For `CCOc1cc(C(=O)N2CCC(N3CCN(C)CC3)CC2)ccc1Nc1ncc2c(n1)N(C1CCCC1)c1ccccc1C(=O)N2C`, the inhibition in test [1] was 100%; in test [2], 52%; in test [6], 100%; in test [8], 100%; in test [9], 100%; in test [10], 100%. Further, the inhibition in test [11], in test [12], in test [13], in [14] and in [15] was 100% in each case. The inhibition at 10 µM in test [3] turned out to be 100%.
